# Results reported in patent US20130004580A1, “DIVALENT CATION/TALC CONTAINING COMPOSITIONS AND METHODS FOR TREATING AND/OR PREVENTING ENZYMATIC IRRITATION” (priority 2011, published 2013).
# Experiments:
# Format in all cases: biochemical
# trypsin [1] = test: Trypsin inhibition, EnzChek protease assay, mixtures of talc with divalent cation salts
# Method: The objective of the following experiment was to determine whether and to what extent adding a divalent cation to talc inhibited trypsin activity in an in vitro assay. The inhibition of trypsin-induced cleavage of a fluorescent casein peptide was measured using the EnzChek™ protease assay kit, following manufacturer's instructions (EnzChek™ Protease Assay Kits Product Information, Revised; Molecular Probes, Eugene Oreg.). […] Trypsin working solution (Sigma, St. Louis, Mo., unit/mL) was prepared in digestion buffer provided in the assay kit. Stock solution of BODIPY FL casein (trypsin substrate, mg/mL) was prepared by adding 0.2 mL to the substrate vials (provided in kit), and the final substrate working solution (10 microgram/mL) was prepared by dilution in digestion buffer (pH 7.8). Following incubation of the trypsin, with or without the test materials, with the BODIPY fluorescent casein substrate, at room temperature for one hour, fluorescence was measured (excitation 485 nm/emission 530 nm) using a SpectraMax microtiter plate reader (Molecular Devices Corporation, Sunnyvale, Calif.) and Softmax Pro software (Molecular Devices Corporation). Each experiment was performed in three replicates.
# trypsin [2] = test: Trypsin inhibition, EnzChek protease assay, zinc oxide/acid mixtures and formulations; details: text b134 on Table 5
# Method: The objective of the following experiment was to determine whether and to what extent adding an acid to a formulation containing zinc oxide had on inhibition of trypsin activity in an in vitro assay. The inhibition of trypsin-induced cleavage of a fluorescent casein peptide was measured using the EnzChek™ protease assay kit, following manufacturer's instructions (EnzChek™ Protease Assay Kits Product Information, Revised; Molecular Probes, Eugene Oreg.). Briefly, mixtures of zinc oxide and acid at different concentrations were prepared in 1×PBS (pH 7.4) and their pH was recorded as listed in the Tables 5-8. Trypsin working solution (Sigma, St. Louis, Mo., unit/mL) was prepared in digestion buffer provided in the assay kit. Stock solution of BODIPY FL casein (trypsin substrate, mg/mL) was prepared by adding 0.2 mL to the substrate vials (provided in kit), and the final substrate working solution (10 microgram/mL) was prepared by dilution in digestion buffer (pH 7.8). Following incubation of the trypsin, with or without the test materials (50 μl), with the BODIPY fluorescent casein substrate, at room temperature for one hour, fluorescence was measured (excitation 485 nm/emission 530 nm) using a SpectraMax microtiter plate reader (Molecular Devices Corporation, Sunnyvale, Calif.) and Softmax Pro software (Molecular Devices Corporation). Each experiment was performed in three replicates. […]
# trypsin [3] = test: Trypsin inhibition, EnzChek protease assay (BODIPY FL casein cleavage), cation salts; details: Table 1
# Method: The inhibition of trypsin-induced cleavage of a fluorescent casein peptide was measured using the EnzChek™ protease assay kit, following manufacturer's instructions (EnzChek™ Protease Assay Kits Product Information, Revised; Molecular Probes, Eugene Oreg.). Briefly, test materials at different concentrations were prepared in 1× phosphate buffered saline (PBS, pH 7.4). Trypsin working solution (Sigma, St. Louis, Mo., unit/mL) was prepared in digestion buffer provided in the assay kit. Stock solution of BODIPY FL casein (trypsin substrate, mg/mL) was prepared by adding 0.2 mL to the substrate vials (provided in kit), and the final substrate working solution (10 microgram/mL) was prepared by dilution in digestion buffer (pH 7.8). […] Each experiment was performed in three replicates.
molecule,measurement,setting,value
CC(=O)[O-].CC(=O)[O-].O.[Ca+2] [Calcium acetate monohydrate],"Salt alone, trypsin inhibition activities (%)","trypsin [1]; Table 3, 0.1% (g/mL)",15.31%
[Ca+2].[Cl-].[Cl-] [Calcium chloride],"Salt alone, trypsin inhibition activities (%)","trypsin [1]; Table 3, 0.1% (g/mL)",17.95%
O.O.O.O.[Cl][Fe][Cl] [Iron (II) chloride tetrahydrate],"Salt alone, trypsin inhibition activities (%)","trypsin [1]; Table 3, 0.1% (g/mL)",65.07%
CC(=O)[O-].CC(=O)[O-].O.O.O.O.[Mg+2] [Magnesium acetate tetrahydrate],"Salt alone, trypsin inhibition activities (%)","trypsin [1]; Table 3, 0.1% (g/mL)",0.83%
[Cl-].[Cl-].[Mg+2] [Magnesium chloride],"Salt alone, trypsin inhibition activities (%)","trypsin [1]; Table 3, 0.1% (g/mL)",4.75%
same,"Salt alone, trypsin inhibition activities (%)","trypsin [1]; Table 4, 0.1% MgCl2 (g/mL)",9.02%
same,"With 1% Talc, trypsin inhibition activities (%)","trypsin [1]; Table 4, 0.1% MgCl2 with 1% talc (g/mL)",25.43%
same,"Salt alone, trypsin inhibition activities (%)","trypsin [1]; Table 4, 0.5% MgCl2 (g/mL)",19.51%
same,"With 1% Talc, trypsin inhibition activities (%)","trypsin [1]; Table 4, 0.5% MgCl2 with 1% talc (g/mL)",32.84%
same,"Salt alone, trypsin inhibition activities (%)","trypsin [1]; Table 4, 1% MgCl2 (g/mL)",22.13%
same,"With 1% Talc, trypsin inhibition activities (%)","trypsin [1]; Table 4, 1% MgCl2 with 1% talc (g/mL)",40.42%
same,"trypsin inhibitory activity, in words",trypsin [1]; text b102 on Table 4,moderate to low levels of trypsin inhibitory activity
CC(=O)[O-].CC(=O)[O-].[Zn+2] [Zinc acetate dihydrate],"Salt alone, trypsin inhibition activities (%)","trypsin [1]; Table 3, 0.1% (g/mL)",62.84%
[Cl-].[Cl-].[Zn+2] [Zinc chloride],"Salt alone, trypsin inhibition activities (%)","trypsin [1]; Table 3, 0.1% (g/mL)",81.07%
"[O]=[Zn] [ZnO, zinc oxide]","trypsin inhibitory activity, in words",trypsin [2],minimal protease activity
copper (II) chloride [(II) chloride dihydrate],% trypsin inhibitory activity,trypsin [3]; concentration 0.01% (g/mL),64.98%
same,% trypsin inhibitory activity,trypsin [3]; concentration 0.10% (g/mL),99.34%
same,% trypsin inhibitory activity,trypsin [3]; concentration 1% (g/mL),108.34%
